How the values were obtained:
Type in all cases: in vivo
[1] = system: AMAPA; experiment: Pre-emergence biological efficacy; conditions: Amaranthus palmeri, 312 h, evaluated after 13 days, read-out: damage to plant (100=total damage to plant; 0=no damage to plant)
Protocol: (§1) Seeds of weeds and/or crops were sown in standard soil in pots. After cultivation for one day under controlled conditions in a glasshouse (at 24/19° C., day/night; 16 hours light), the plants were sprayed with an aqueous spray solution derived from the formulation of the technical active ingredient in a small amount of acetone and a special solvent and emulsifier mixture referred to as IF50 (11.12% Emulsogen EL360 TM+44.44% N-methylpyrrolidone+44.44% Dowanol DPM glycol ether), to create a 50g/l solution which was then diluted using 0.2% Genapol XO80 as diluent to give the desired final dose of test compound.
(§2) The test plants were then grown under controlled conditions in the glasshouse (at 24/18° C., day/night; 15 hours light; 50% humidity) and watered twice daily. After 13 days the test was evaluated (100=total damage to plant; 0=no damage to plant).

[2] = system: ECHCG; experiment: Pre-emergence biological efficacy; conditions: Echinochloa crus-galli, 312 h, evaluated after 13 days, read-out: damage to plant (100=total damage to plant; 0=no damage to plant)
Protocol: as §1, §2

[3] = system: EPHHL; experiment: Pre-emergence biological efficacy; conditions: Euphorbia heterophylla, 312 h, evaluated after 13 days, read-out: damage to plant (100=total damage to plant; 0=no damage to plant)
Protocol: as §1, §2

[4] = system: IPOHE; experiment: Pre-emergence biological efficacy; conditions: Ipomoea hederacea, 312 h, evaluated after 13 days, read-out: damage to plant (100=total damage to plant; 0=no damage to plant)
Protocol: as §1, §2

[5] = system: LOLPE; experiment: Pre-emergence biological efficacy; conditions: Lolium perenne, 312 h, evaluated after 13 days, read-out: damage to plant (100=total damage to plant; 0=no damage to plant)
Protocol: as §1, §2

[6] = system: SETFA; experiment: Pre-emergence biological efficacy; conditions: Setaria faberi, 312 h, evaluated after 13 days, read-out: damage to plant (100=total damage to plant; 0=no damage to plant)
Protocol: as §1, §2

[7] = system: AMAPA; experiment: Post-emergence biological efficacy; conditions: Amaranthus palmeri, 312 h, evaluated after 13 days, read-out: damage to plant (100=total damage to plant; 0=no damage to plant)
Protocol: as §1, with “14 days” for “one day”
(§3) The test plants were then grown under controlled conditions in the glasshouse (at 24/18° C., day/night; 15 hours light; 50% humidity)and watered twice daily. After 13 days the test was evaluated (100=total damage to plant; 0=no damage to plant).

[8] = system: CHEAL; experiment: Post-emergence biological efficacy; conditions: Chenopodium album, 312 h, evaluated after 13 days, read-out: damage to plant (100=total damage to plant; 0=no damage to plant)
Protocol: as §1, with “14 days” for “one day”
as §3

[9] = system: DIGSA; experiment: Post-emergence biological efficacy; conditions: Digitaria sanguinalis, 312 h, evaluated after 13 days, read-out: damage to plant (100=total damage to plant; 0=no damage to plant)
Protocol: as §1, with “14 days” for “one day”
as §3

[10] = system: ECHCG; experiment: Post-emergence biological efficacy; conditions: Echinochloa crus-galli, 312 h, evaluated after 13 days, read-out: damage to plant (100=total damage to plant; 0=no damage to plant)
Protocol: as §1, with “14 days” for “one day”
as §3

[11] = system: ELEIN; experiment: Post-emergence biological efficacy; conditions: 312 h, evaluated after 13 days, read-out: damage to plant (100=total damage to plant; 0=no damage to plant)
Protocol: as §1, with “14 days” for “one day”
as §3

[12] = system: EPHHL; experiment: Post-emergence biological efficacy; conditions: Euphorbia heterophylla, 312 h, evaluated after 13 days, read-out: damage to plant (100=total damage to plant; 0=no damage to plant)
Protocol: as §1, with “14 days” for “one day”
as §3

[13] = system: IPOHE; experiment: Post-emergence biological efficacy; conditions: Ipomoea hederacea, 312 h, evaluated after 13 days, read-out: damage to plant (100=total damage to plant; 0=no damage to plant)
Protocol: as §1, with “14 days” for “one day”
as §3

[14] = system: LOLPE; experiment: Post-emergence biological efficacy; conditions: Lolium perenne, 312 h, evaluated after 13 days, read-out: damage to plant (100=total damage to plant; 0=no damage to plant)
Protocol: as §1, with “14 days” for “one day”
as §3

[15] = system: SETFA; experiment: Post-emergence biological efficacy; conditions: Setaria faberi, 312 h, evaluated after 13 days, read-out: damage to plant (100=total damage to plant; 0=no damage to plant)
Protocol: as §1, with “14 days” for “one day”
as §3

SMILES | pest or weed control at 250 g/ha [1] [%] | pest or weed control at 250 g/ha [2] [%] | pest or weed control at 250 g/ha [3] [%] | pest or weed control at 250 g/ha [4] [%] | pest or weed control at 250 g/ha [5] [%] | pest or weed control at 250 g/ha [6] [%] | pest or weed control at 250 g/ha [7] [%] | pest or weed control at 250 g/ha [8] [%] | pest or weed control at 250 g/ha [9] [%] | pest or weed control at 250 g/ha [10] [%] | pest or weed control at 250 g/ha [11] [%] | pest or weed control at 250 g/ha [12] [%] | pest or weed control at 250 g/ha [13] [%] | pest or weed control at 250 g/ha [14] [%] | pest or weed control at 250 g/ha [15] [%]
CCOC(=O)C1(C)CC(c2cc(-c3cc(Cl)cnc3F)c(F)cc2Cl)=NO1 (stereo not drawn) [Compound 1-199, Ethyl 3-[2-chloro-5-(5-chloro-2-fluoro-3-pyridyl)-4-fluoro-phenyl]-5-methyl-4H-isoxazole-5-carboxylate] | 80 | 0 | 30 | 0 | 10 | 10 | 100 | 90 | 50 | 70 | 20 | 90 | 100 | 40 | 60
CCOC(=O)C1(C)CC(c2cc(-c3cccnc3F)c(F)cc2Cl)=NO1 (stereo not drawn) [Compound 1-211, Ethyl 3-[2-chloro-4-fluoro-5-(2-fluoro-3-pyridyl)phenyl]-5-methyl-4H-isoxazole-5-carboxylate] | 0 | 0 | 0 | 0 | 0 | 0 | 100 | 90 | 10 | 20 | 20 | 30 | 50 | 0 | 20
CCOC(=O)C1(C)CC(c2cc(-c3cc(C)cnc3F)c(F)cc2Cl)=NO1 (stereo not drawn) [Compound 1-223, Ethyl 3-[2-chloro-4-fluoro-5-(2-fluoro-5-methyl-3-pyridyl)phenyl]-5-methyl-4H-isoxazole-5-carboxylate] | 0 | 0 | 0 | 0 | 0 | 0 | 100 | 80 | 30 | 50 | 10 | 70 | 100 | 20 | 80
CCOC(=O)C1(C)CC(c2cc(-c3cc(C(F)(F)F)cnc3F)c(F)cc2Cl)=NO1 (stereo not drawn) [Compound 1-235, Ethyl 3-[2-chloro-4-fluoro-5-[2-fluoro-5-(trifluoromethyl)-3-pyridyl]phenyl]-5-methyl-4H-isoxazole-5-carboxylate] | 100 | 0 | 50 | 60 | 0 | 0 | 100 | 100 | 70 | 60 | 100 | 100 | 100 | 60 | 100
